# According to patent US20170281624A1, “COMBINATION THERAPIES OF ALK INHIBITORS” (Novartis AG, priority 2014, published 2017):
# What was measured:
# ALK-positive NSCLC = test: Clinical study of LDK378 in ALK-positive NSCLC patients, 750 mg dose group; type: in vivo, human
# [1] = ceritinib trials; cited from earlier work
# [2] = system: PD-L1 (CD274) in H3122 cells; test: PD-L1 (CD274) expression by TaqMan real time PCR and flow cytometry; type: cell-based, human
# Protocol: This example evaluates the effects of selected therapeutic agent LDK378 on PD-L1 (CD274) modulation. LDK378 was examined by real time PCR and flow cytometry on PD-L1 levels.
# TaqMan RT PCR assays were developed to detect changes of expression levels of PD-L1 (CD274) in cell lines and xenograft tumors. mRNA was isolated from frozen cell pellets or tumor fragments using the Qiagen RNeasy Mini kit. Isolated RNA was frozen at −80° C. RNA quality was checked and RNA was quantified using a 2100 Agilent Bioanalyzer following the protocol for the Agilent RNA 6000 Nano Kit. cDNA was prepared using a High Capacity RNA-to cDNA Kit (Applied Biosystems).
# Real-time PCR reactions were carried out in 20 μl total volume, including 10 μl of Universal PCR master mix (Applied Biosystems), 1 μl of human PD-L1 (CD274) probe/primer set (Applied Biosystems), and 8 μl of cDNA. Each sample was run in triplicate. The amount of cDNA produced from 25-50 ng of RNA in the reverse transcription reaction was used in each PCR reaction. Due to difference in mRNA levels between PD-L1 and GAPDH, the two real-time PCR reactions were done in separate tubes using same amount of cDNA. The real-time PCR reaction was run on the C1000 Thermal Cycle (BioRad) with the cycle program as follows: a 10 minute incubation at 95° C. followed by 40 cycles of 95° C. for 15 seconds and 60° C. for 1 minute. […]
smiles,measurement,setting,value
"Cc1cc(Nc2ncc(Cl)c(Nc3ccccc3S(=O)(=O)C(C)C)n2)c(OC(C)C)cc1C1CCNCC1 [LDK378, 5-chloro-N^2-(2-isopropoxy-5-methyl-4-(piperidin-4-yl)phenyl)-N^4-[2-(propane-2-sulfonyl)-phenyl]-pyrimidine-2,4-diamine]",median progression-free survival (PFS),"ALK-positive NSCLC; 750 mg, 53.3% of the patients censored",8.21 months
same,median time to response,"ALK-positive NSCLC; 144 patients with confirmed CR or PR, 750 mg",6.1 weeks
same,overall response rate (ORR),"ALK-positive NSCLC; 246 ALK-positive NSCLC patients, 750 mg dose group (RD)",58.5%
same,ORR,ALK-positive NSCLC; ALK inhibitor-naïve patients,66.3%
same,patients who achieved a response within 12 weeks,"ALK-positive NSCLC; among the 144 patients with confirmed CR or PR, 750 mg",86.1%
same,estimated median duration of response (DOR),"ALK-positive NSCLC; investigator assessment, 750 mg",9.69 months
same,ORR,ALK-positive NSCLC; patients treated with a prior ALK inhibitor,54.6%
same,immune-related adverse events,[1],have not been frequently reported
same,PD-L1 mRNA,"[2]; H3122 (NSCLC with ALK translocation) in vitro, FIG. 1",Inhibition
same,PD-L1 levels on tumor cells,[2]; real time PCR and flow cytometry,Significant inhibition
